# Laboratory results: publication PMC12113356, “Novel Anti-MRSA Peptide from Mangrove-Derived Virgibacillus chiguensis FN33 Supported by Genomics and Molecular Dynamics” (Marine Drugs, 2025)
# Read-outs that look alike come from different tables or passages of the source.
# Tests used:
# [1] = DPPH radical-scavenging assay; conditions: 0.1 mM DPPH, 25 °C, 30 min in darkness, absorbance 517 nm; mean ± SD, n = 3
# Experimental: A 200 μL sample or ascorbic acid (Gammaco Ltd., Bangkok, Thailand) was added to 2 mL of 0.1 mM DPPH solution (Merck Ltd., Bangkok, Thailand) and incubated at 25 °C in darkness for 30 min. The DPPH color change from purple to pale yellow was observed, and the absorbance at 517 nm was measured using a UV–visible spectrophotometer.
# MRSA strain 2468 [2] = assay: Compatibility with surfactants (activity retention by agar well diffusion); assay type: physicochemical, Staphylococcus aureus; conditions: surfactant 1% w/v alone, no AMP, agar well diffusion, % of untreated FN33 AMP sample, mean ± SD, n = 3
# Experimental: The AMP solution was prepared in sterile purified water and adjusted to a final concentration of 32 µg/mL. To determine thermal stability, the AMP was exposed to temperatures of 30, 40, 60, 80, and 100 °C, as well as to autoclaving at 121 °C and 15 psi for 15 and 30 min. The susceptibility of the AMP to enzymatic degradation was examined by treating it with proteinase K, trypsin, and α-chymotrypsin (each at 1 mg/mL, Sigma-Aldrich, Warren, MI, USA), representing different proteolytic mechanisms. The AMP’s compatibility with surfactants was assessed by incubating it with 1% SDS, 1% CTAB, and 1% Triton X-100 (AppliChem GmbH, Darmstadt, Germany). Additionally, the effect of pH variations on AMP integrity was tested by adjusting the solution to pH 1, 4, 8, 10, and 14. The pH was neutralized to the original pH after incubation before conducting antibacterial activity tests. […] Stability data were expressed as residual activity percentages relative to the untreated sample (mean ± SD), and statistical significance was evaluated using two-way ANOVA and Tukey’s post hoc test, with a p-value < 0.05 considered significant.
# MRSA strains = assay: Broth microdilution MIC/MBC (CLSI), for the MRSA strains together; assay type: cell-based; conditions: Staphylococcus aureus
# Experimental: (§1) The broth microdilution method was performed following the guidelines of the Clinical and Laboratory Standards Institute (CLSI). Test strains including S. aureus TISTR 517 and MRSA strains 142, 1096, and 2468 were cultured on MH agar at 37 °C for 18 h. A single colony from each strain was suspended in 0.85% NaCl until it reached a turbidity of 0.1 OD at 625 nm (1 × 10^8 CFU/mL). The bacterial cells were then diluted to 5 × 10^6 CFU/mL using cation-adjusted Mueller–Hinton broth (CAMHB). Ten microliters of the cell suspension were added to each well of a 96-well plate to make the total volume in each well 100 µL. The AMP was added to achieve final concentrations ranging from 0.125 to 64 µg/mL. Vancomycin and cefoxitin were used as positive controls, while antibiotic-free samples were used as negative controls. The plate was incubated at 37 °C for 24 h. Each experiment was performed in triplicate. The MIC was determined as the lowest concentration that inhibited visible bacterial growth. For the MBC, 100 µL from each dilution was spread on MH agar and incubated at 37 °C for 24 h. The MBC was the lowest concentration at which no bacterial colonies appeared on the agar plates.
# MRSA strain 2468 [3] = assay: Broth microdilution MIC/MBC (CLSI); assay type: cell-based; conditions: Staphylococcus aureus
# Experimental: as §1
# MRSA strain 1096 [4] = assay: Broth microdilution MIC/MBC (CLSI); assay type: cell-based; conditions: Staphylococcus aureus
# Experimental: as §1
# MRSA strain 142 [5] = assay: Broth microdilution MIC/MBC (CLSI); assay type: cell-based; conditions: Staphylococcus aureus
# Experimental: as §1
# MRSA strain 2468 [6] = assay: Agar well diffusion method; assay type: cell-based, Staphylococcus aureus; conditions: 9 mm wells, MH agar, 37 °C 18 h, antibiotics 30 µg, mean ± SD, n = 3
# Experimental: (§2) The optical density of the starter cultures was adjusted to 0.1 OD at 625 nm using 0.85% sterile NaCl solution before transferring 1 mL of the culture into 49 mL of fresh broth. The inoculum was then incubated at 30 °C with shaking at 150 rpm for 3 days. The CFS was obtained by centrifugation at 10,000× g at 4 °C for 15 min and filtered through a 0.2 µm sterile cellulose acetate syringe filter (Sigma-Aldrich, Warren, MI, USA). The antibacterial activity of the isolates was tested against S. aureus TISTR 517, E. coli TISTR 887, K. pneumoniae TISTR 1383, and P. aeruginosa TISTR 357, obtained from the Thailand Institute of Scientific and Technological Research (TISTR), Thailand, and three MRSA strains (strains 142, 1096, and 2468), provided by the medical technology laboratory of the School of Allied Health Sciences, Walailak University, Thailand. The pathogenic bacteria were incubated on MH agar at 37 °C for 18 h to obtain fresh cultures. Colonies of the test pathogens were scraped and suspended in 0.85% sterile NaCl solution. The test pathogen suspensions were adjusted to a turbidity equivalent to 0.1 OD at 625 nm before being spread onto MH agar plates. […] Wells with a diameter of 9 mm were made in the agar using a sterile cork borer. The collected CFS from the bacterial culture was transferred into the wells, and the plates were incubated at 37 °C for 18 h. Cefoxitin (30 µg) and vancomycin (30 µg) (Sigma-Aldrich Co., St. Louis, MO, USA) were used as positive controls. The experiment was repeated in triplicate, and the mean ± SD of the inhibition zone diameters was recorded.
# S. aureus TISTR 517 [7] = assay: Agar well diffusion method; assay type: cell-based, Staphylococcus aureus; conditions: 9 mm wells, MH agar, 37 °C 18 h, antibiotics 30 µg, mean ± SD, n = 3
# Experimental: as §2
# MRSA strain 1096 [8] = assay: Agar well diffusion method; assay type: cell-based, Staphylococcus aureus; conditions: 9 mm wells, MH agar, 37 °C 18 h, antibiotics 30 µg, mean ± SD, n = 3
# Experimental: as §2
# MRSA strain 142 [9] = assay: Agar well diffusion method; assay type: cell-based, Staphylococcus aureus; conditions: 9 mm wells, MH agar, 37 °C 18 h, antibiotics 30 µg, mean ± SD, n = 3
# Experimental: as §2
# S. aureus TISTR 517 [10] = assay: Broth microdilution MIC/MBC (CLSI); assay type: cell-based, Staphylococcus aureus
# Experimental: as §1
# P. aeruginosa TISTR 357 = assay: Agar well diffusion method; assay type: cell-based; conditions: 9 mm wells, MH agar, 37 °C 18 h, antibiotics 30 µg, mean ± SD, n = 3
# Experimental: as §2
# E. coli TISTR 887 = assay: Agar well diffusion method; assay type: cell-based; conditions: 9 mm wells, MH agar, 37 °C 18 h, antibiotics 30 µg, mean ± SD, n = 3
# Experimental: as §2
# K. pneumoniae TISTR 1383 = assay: Agar well diffusion method; assay type: cell-based; conditions: 9 mm wells, MH agar, 37 °C 18 h, antibiotics 30 µg, mean ± SD, n = 3
# Experimental: as §2
# MRSA strain 2468 [11] = assay: Scanning electron microscopy of treated cells; assay type: cell-based, Staphylococcus aureus; conditions: 1× MIC, 16 h / 18 h (figure legend), 30,000× magnification
# Source text: (§3) SEM was used to examine morphological alterations in the bacterial cells. […] This appearance reflected their natural cellular structure.
# (§4) Figure 5 SEM images captured at 30,000× magnification. […] The non-treatment condition served as a negative control.
# S. aureus TISTR 517 [12] = assay: Scanning electron microscopy of treated cells; assay type: cell-based, Staphylococcus aureus; conditions: 1× MIC, 16 h / 18 h (figure legend), 30,000× magnification
# Source text: as §3, §4
# [13] = 100 µL of each dilution spread on MH agar, 37 °C 24 h, triplicate, read-out: MBC
# [14] = broth microdilution, CAMHB, 37 °C 24 h, triplicate, read-out: MIC
# [15] = 100 µL of each dilution spread on MH agar, 37 °C 24 h, triplicate
# [16] = broth microdilution, CAMHB, 37 °C 24 h, triplicate
# [17] = Staphylococcus aureus, TISTR517, 24 h
Molecule,"Antibacterial activity against MRSA Strain 2468 of surfactant alone, on the scale of FN33 AMP activity retention (%) (MRSA strain 2468 [2]; 1 h)","Antibacterial activity against MRSA Strain 2468 of surfactant alone, on the scale of FN33 AMP activity retention (%) (MRSA strain 2468 [2]; 6 h)","Antibacterial activity against MRSA Strain 2468 of surfactant alone, on the scale of FN33 AMP activity retention (%) (MRSA strain 2468 [2]; 12 h)",Zone of Inhibition (MRSA strain 2468 [6]) [mm],Zone of Inhibition (S. aureus TISTR 517 [7]) [mm],Zone of Inhibition (MRSA strain 1096 [8]) [mm],Zone of Inhibition (MRSA strain 142 [9]) [mm],MBC (S. aureus TISTR 517 [10]; [15]) [µg/mL],MIC (S. aureus TISTR 517 [10]; [16]) [µg/mL],Zone of Inhibition (P. aeruginosa TISTR 357) [mm],Zone of Inhibition (E. coli TISTR 887) [mm],Zone of Inhibition (K. pneumoniae TISTR 1383) [mm],further results
"O=C1O[C@H]([C@@H](O)CO)C(O)=C1O [Ascorbic acid, ascorbic acid, reference compound]",–,–,–,–,–,–,–,–,–,–,–,–,IC50 (DPPH radical scavenging) [1]: 6.78 ± 1.58 µg/mL
"CCCCCCCCCCCCCCCC[N+](C)(C)C [CTAB, cetyltrimethylammonium bromide, reference compound]",98.62 ± 0.69,98.89 ± 1.10,98.42 ± 0.72,–,–,–,–,–,–,–,–,–,–
CO[C@@]1(NC(=O)Cc2cccs2)C(=O)N2C(C(=O)O)=C(COC(N)=O)CS[C@@H]21 [Cefoxitin],–,–,–,0.00 ± 0.00,35.87 ± 0.46,0.00 ± 0.00,0.00 ± 0.00,2,2,0.00 ± 0.00,35.12 ± 1.04,19.67 ± 0.88,"MBC (MRSA strains; text statement for the MRSA strains (142, 1096, 2468) together, read-out: MBC): > 64 µg/mL; MIC (MRSA strains; text statement for the MRSA strains (142, 1096, 2468) together, read-out: MIC): > 64 µg/mL; MBC (MRSA strain 2468 [3]; [13]): > 64 µg/mL; MIC (MRSA strain 2468 [3]; [14]): > 64 µg/mL; MBC (MRSA strain 1096 [4]; [13]): > 64 µg/mL; MIC (MRSA strain 1096 [4]; [14]): > 64 µg/mL; MBC (MRSA strain 142 [5]; [13]): > 64 µg/mL; MIC (MRSA strain 142 [5]; [14]): > 64 µg/mL; MBC (S. aureus TISTR 517 [10]; Staphylococcus aureus, TISTR517, 100 µL of each dilution spread on MH agar, 37 °C 24 h, triplicate, read-out: MBC): 2 µg/mL; MIC (S. aureus TISTR 517 [10]; Staphylococcus aureus, TISTR517, broth microdilution, CAMHB, 37 °C 24 h, triplicate, read-out: MIC): 2 µg/mL"
"CCCCCCCCCCCCOS(=O)(=O)[O-].[Na+] [SDS, sodium dodecyl sulfate, reference compound]",110.10 ± 0.84,109.30 ± 0.56,108.93 ± 0.57,–,–,–,–,–,–,–,–,–,–
CN[C@H](CC(C)C)C(=O)N[C@H]1C(=O)N[C@@H](CC(N)=O)C(=O)N[C@H]2C(=O)N[C@H]3C(=O)N[C@H](C(=O)N[C@H](C(=O)O)c4cc(O)cc(O)c4-c4cc3ccc4O)[C@H](O)c3ccc(c(Cl)c3)Oc3cc2cc(c3O[C@@H]2O[C@H](CO)[C@@H](O)[C@H](O)[C@H]2O[C@H]2C[C@](C)(N)[C@H](O)[C@H](C)O2)Oc2ccc(cc2Cl)[C@H]1O [Vancomycin],–,–,–,24.64 ± 1.02,23.37 ± 1.27,24.38 ± 0.51,24.13 ± 1.27,2,2,0.00 ± 0.00,0.00 ± 0.00,0.00 ± 0.00,MBC (MRSA strains; MRSA): 2 µg/mL; MIC (MRSA strains; MRSA): 2 µg/mL; morphological changes under SEM (MRSA strain 2468 [11]): complete cell lysis; morphological changes under SEM (S. aureus TISTR 517 [12]): complete cell lysis; MBC (MRSA strain 2468 [3]; 24 h): 2 µg/mL; MIC (MRSA strain 2468 [3]; 24 h): 2 µg/mL; MBC (MRSA strain 1096 [4]; 24 h): 2 µg/mL; MIC (MRSA strain 1096 [4]; 24 h): 2 µg/mL; MBC (MRSA strain 142 [5]; 24 h): 2 µg/mL; MIC (MRSA strain 142 [5]; 24 h): 2 µg/mL; MBC (S. aureus TISTR 517 [10]; [17]): 2 µg/mL; MIC (S. aureus TISTR 517 [10]; [17]): 2 µg/mL
Triton X-100 [reference compound],0.00 ± 0.00,0.00 ± 0.00,0.00 ± 0.00,–,–,–,–,–,–,–,–,–,–
